Literature values as cited in patent US20010046957A1, “Method for treating hepatitis C” (priority 1999, published 2001).

How the values were obtained:
[1] = test system: HCV; settings: patients with CHC virus infection following liver transplant, after initiation of MMF therapy for rejection; anecdotal report (Platz KP)
[2] = test system: yellow fever virus; settings: (Neyts J)
[3] = test system: HCV
[4] = patients treated at currently recommended doses
[5] = in vivo

Molecule: COc1c(C)c2c(c(O)c1C/C=C(\C)CCC(=O)OCCN1CCOCC1)C(=O)OC2 [MMF, mycophenolate mofetil]
- serum HCV RNA levels [1]: decrease in some patients
- antiviral activity [2]: antiviral activity

Molecule: NC(=O)c1ncn([C@@H]2O[C@H](CO)[C@@H](O)[C@H]2O)n1 [Ribavirin, 1-β-D-ribofuranosyl-1 H-1 ,2,-4-triazole-3-carboxamide]
- improvement of sustained virological response rates over IFN-α monotherapy ([3]; ribavirin combined with IFNα, CHC (Lai MY; Reichard O)): approximately 2 fold
- end of treatment virological response ([3]; ribavirin combined with a pegylated form of IFN-α2A, small pilot study of safety (Sulkowski M.)): 70%
- sustained loss of detectable virus ([3]; ribavirin plus IFNα regimen, treated patients (McHutchison JG)): 30 - 40%
- significant hemolysis, patients affected [4]: 10-20%

Molecule: IFN-α
- sustained response ([3]; IFN-α monotherapy, general CHC populations (Fried M)): 5-20%

Molecule: Mycophenolic acid [MPA]
- bioavailability [5]: limited
